According to patent publication US20070213354A1, “Compositions and Methods for the Treatment of Multiple Sclerosis” (AmpliMed Corporation, priority 2006, published 2007):
pIC50: −log10 of the molar value.

Assays:
acute monophasic EAE [1] = experiment: Acute monophasic EAE, drug administration beginning on day 11 post immunization; assay type: in vivo, C57/BL6 mice; conditions: for Mean Clinical Score / Day of Onset / Incidence: 32 day observation; for Mean Clinical Score: mice that had evidence of disease; for Max. Clinical Score: scale 0 to 5
Text: (§1) An acute monophasic form of EAE, induced by the administration of MOG, mimics the progressive clinical patterns of MS seen in human patients and can provide an opportunity to investigate a therapy's ability to prevent progression to symptomatic disease, to prevent or reduce the disability that would otherwise be caused by disease progression, or to treat one or more clinical symptoms of MS. The induction of the acute monophasic form of EAE in C57/BL6 mice can be achieved as described in Gaupp et al., Am J Pathol. 162(1): 139-150 (2003). Similarly, a relapsing-remitting form of EAE, induced by the administration of PLP, mimics the more common relapsing-remitting form of MS seen in humans and can provide an opportunity to investigate potential therapies to reduce the frequency, severity, or duration of a disease relapse, to otherwise prevent disability caused by disease progression, or to relieve one or more clinical symptoms of MS in human patients. The induction of the relapsing-remitting form of EAE in SJL/J mice can be achieved as described in Fridkis-Hareli et al., J Clin Invest. 109(12): 1635-1643 (2002).
(§2) Acute monophasic EAE was induced in C57/BL6 mice by subcutaneous flank and tail base injections of 200 μg of MOG in complete Freund's adjuvent containing 500 μg of heat-inactivated mycobacterium tuberculosis on day 0, supplemented by intravenous injections of 200 ng of pertussis toxin on day 2.
With reference now to FIG. 4, five groups of mice (each group containing 5 or 6 individuals), immunized for acute monophasic EAE as described hereinbefore, were treated with either ethonafide (AMP) or mitoxantrone at a dose of 0.5 mg/kg or 1.0 mg/kg beginning on day 11 following immunization, for seven days, or were left untreated to be used as a control. Each drug was administered intraperitoneally in phosphate buffered saline (untreated mice received i.p. administrations of the PBS vehicle). The mice were observed daily for clinical signs of disease and were scored as indicated hereinbefore on a clinical scale from 0 to 5. The incidence of disease in the immunized mice, the day of disease onset, the maximum clinical score, and the mean clinical score over a 32 day observation period were determined, and the results are shown in Table 3.

L1210 resistant = conditions: murine leukemia L1210 resistant, P-glycoprotein producing; MTT, continuous exposure; cited from earlier work
neonatal rat myocytes = conditions: 1 hour drug concentration that reduces ATP/protein ratio to 50% of untreated control myocytes; read-out: IC50 Cardiotox; cited from earlier work
L1210 sensitive = conditions: murine leukemia L1210 sensitive to standard cytotoxic agents; MTT, continuous exposure; cited from earlier work
acute monophasic EAE [2] = experiment: Acute monophasic EAE, drug administration beginning with immunization; assay type: in vivo, C57/BL6 mice; conditions: for Day of Onset / Incidence / Mean Clinical Score: 30 day observation; for Max. Clinical Score: scale 0 to 5
Text: as §1, §2
With reference first to FIGS. 1-3, beginning on the day of immunization for acute monophasic EAE, nine groups of mice (each group containing 5 or 6 individuals) were treated with either ethonafide (AMP; a compound of Formula (II) wherein the dibenzisoquinoline ring structure is substituted at position 6 with —OCH2CH3) or mitoxantrone at a dose of 0.125 mg/kg, 0.25 mg/kg, or 0.5 mg/kg daily for seven days, or were left untreated to be used as a control at each respective dose level. Each drug was administered intraperitoneally in phosphate buffered saline (untreated mice received i.p. administrations of the PBS vehicle). The mice were observed daily for clinical signs of disease, and were scored (by multiple investigators) on an arbitrary scale from 0 to 5 in increments of 0.5 according to the following parameters: 0—no clinical signs of disease; 1—flaccid tail; 2—hind limb weakness or abnormal gait; 3—complete hind paralysis; 4—complete hind paralysis with forelimb weakness or paralysis; and 5-moribund or deceased. The incidence of disease in the immunized mice, the day of disease onset, the maximum clinical score, and the mean clinical score over a 30 day observation period were determined, and the results are shown in Table 2.

[3] = 0.5 mg/kg i.p. for seven days beginning on day 11
[4] = 0.5 mg/kg i.p. for seven days beginning on day 11 following immunization
[5] = 1.0 mg/kg i.p. for seven days beginning on day 11
[6] = 1.0 mg/kg i.p. for seven days beginning on day 11 following immunization
[7] = 0.125 mg/kg i.p. daily for seven days from day of immunization
[8] = 0.125 mg/kg i.p. daily for seven days from day of immunization, mice that had evidence of disease
[9] = 0.25 mg/kg i.p. daily for seven days from day of immunization
[10] = 0.25 mg/kg i.p. daily for seven days from day of immunization, mice that had evidence of disease
[11] = 0.5 mg/kg i.p. daily for seven days from day of immunization

CCOc1ccc2c3c(c4ccccc4cc13)C(=O)N(CCN(C)C)C2=O [*6-OC2H5]
Mean Clinical Score (acute monophasic EAE [1]; [3]): 1.86 ± 0.35 | Day of Onset (acute monophasic EAE [1]; [4]): 11.8 ± 0.72 | Incidence (acute monophasic EAE [1]; [4]): 100% | Max. Clinical Score (acute monophasic EAE [1]; [4]): 3.9 ± 0.26 | Mean Clinical Score (acute monophasic EAE [1]; [5]): 1.17 ± 0.24 | Day of Onset (acute monophasic EAE [1]; [6]): 12.3 ± 0.55 | Incidence (acute monophasic EAE [1]; [6]): 60% | Max. Clinical Score (acute monophasic EAE [1]; [6]): 3.7 ± 0.22 | effect in the treatment of clinical symptoms induced in the EAE mouse model (acute monophasic EAE [1]; 0.5 and 1.0 mg/kg beginning on day 11, FIG. 4, Table 3): dose dependent effect | pIC50 (L1210 resistant): 8.15 | pIC50 (neonatal rat myocytes): 5.75 | pIC50 (L1210 sensitive): 8.10 | Day of Onset (acute monophasic EAE [2]; [7]): 11.5 ± 0.88 | Incidence (acute monophasic EAE [2]; [7]): 100% | Mean Clinical Score (acute monophasic EAE [2]; [8]): 1.98 ± 0.48 | Max. Clinical Score (acute monophasic EAE [2]; [7]): 3.5 ± 0.22 | Day of Onset (acute monophasic EAE [2]; [9]): 17.8 ± 3.4 | Incidence (acute monophasic EAE [2]; [9]): 100% | Mean Clinical Score (acute monophasic EAE [2]; [10]): 0.88 ± 0.38 | Max. Clinical Score (acute monophasic EAE [2]; [9]): 1.8 ± 1.16 | Incidence (acute monophasic EAE [2]; [11]): 0% | Mean Clinical Score (acute monophasic EAE [2]; [11]): 0 | Max. Clinical Score (acute monophasic EAE [2]; [11]): 0 | effect in delaying or preventing the onset of clinically symptomatic progressive disease and the disability caused thereby (acute monophasic EAE [2]; 0.125, 0.25, 0.5 mg/kg from day of immunization, FIGS. 1-3, Table 2): dose dependent effect

CN(C)CCNc1c2ccccc2c2c3c(cccc13)C(=O)N(CCN(C)C)C2=O [*7-NH(CH2)2N(CH3)2]
pIC50 (L1210 resistant): 6.28 | pIC50 (neonatal rat myocytes): 3.54 | pIC50 (L1210 sensitive): 6.28

CCN1CCCC(N2C(=O)c3cccc4cc5ccccc5c(c34)C2=O)C1 (centres unmarked) [2-(1-ethyl-3-piperidinyl)]
pIC50 (L1210 resistant): 6.22 | pIC50 (neonatal rat myocytes): 5.06 | pIC50 (L1210 sensitive): 6.20

CCCOc1c2ccccc2c2c3c(cccc13)C(=O)N(CCN(C)C)C2=O [*6-OC3H7]
pIC50 (L1210 resistant): 7.31 | pIC50 (neonatal rat myocytes): 5.11 | pIC50 (L1210 sensitive): 7.77

CSc1ccc2c3c(c4ccccc4cc13)C(=O)N(CCN(C)C)C2=O [*6-SCH3]
pIC50 (L1210 resistant): 9.30 | pIC50 (neonatal rat myocytes): 5.52 | pIC50 (L1210 sensitive): 9.40

CN(C)CCN1C(=O)c2cccc3cc4cc(N)ccc4c(c23)C1=O [*9-NH2]
pIC50 (L1210 resistant): 7.80 | pIC50 (neonatal rat myocytes): 6.09 | pIC50 (L1210 sensitive): 8.52

CC(=O)Nc1ccc2cc3ccccc3c3c2c1C(=O)N(CCN(C)C)C3=O [*4-NHCOCH3]
pIC50 (L1210 resistant): 6.25 | pIC50 (neonatal rat myocytes): < 4.61 | pIC50 (L1210 sensitive): 6.22

CN(C)CCN1C(=O)c2cccc3cc4ccc(Cl)cc4c(c23)C1=O [*10-Cl]
pIC50 (L1210 resistant): 8.10 | pIC50 (neonatal rat myocytes): 6.11 | pIC50 (L1210 sensitive): 8.30

CN(C)CCN1C(=O)c2c(N)ccc3cc4ccccc4c(c23)C1=O [*4-NH2]
pIC50 (L1210 resistant): 8.10 | pIC50 (neonatal rat myocytes): 6.36 | pIC50 (L1210 sensitive): 8.30

O=C1c2cccc3cc4ccccc4c(c23)C(=O)N1CCc1ccccn1 [2-(CH2)2-2-pyridyl]
pIC50 (L1210 resistant): 4.81 | pIC50 (neonatal rat myocytes): < 4.60 | pIC50 (L1210 sensitive): 5.19

CNCCN1C(=O)c2ccc(Cl)c3cc4ccccc4c(c23)C1=O [2-(CH2)2NHCH3; 6-Cl]
pIC50 (L1210 resistant): 7.28 | pIC50 (neonatal rat myocytes): 5.12 | pIC50 (L1210 sensitive): 7.28

CN(C)CCN1C(=O)c2cccc3cc4ccc([N+](=O)[O-])cc4c(c23)C1=O [*10-NO2]
pIC50 (L1210 resistant): 7.60 | pIC50 (neonatal rat myocytes): 6.10 | pIC50 (L1210 sensitive): 7.60

O=C1c2c(O)ccc(O)c2C(=O)c2c(NCCNCCO)ccc(NCCNCCO)c21 [Mitoxantrone, reference compound]
Mean Clinical Score (acute monophasic EAE [1]; [3]): 0.59 ± 1.67 | Day of Onset (acute monophasic EAE [1]; [4]): 12.2 ± 0.68 | Incidence (acute monophasic EAE [1]; [4]): 100% | Max. Clinical Score (acute monophasic EAE [1]; [4]): 2.4 ± 0.36 | Mean Clinical Score (acute monophasic EAE [1]; [5]): 0.51 ± 0.21 | Day of Onset (acute monophasic EAE [1]; [6]): 13.3 ± 0.55 | Incidence (acute monophasic EAE [1]; [6]): 60% | Max. Clinical Score (acute monophasic EAE [1]; [6]): 2.8 ± 0.36 | pIC50 (L1210 resistant): 7.41 | pIC50 (neonatal rat myocytes): 5.11 | pIC50 (L1210 sensitive): 8.00 | Day of Onset (acute monophasic EAE [2]; [7]): 12.5 ± 0.67 | Incidence (acute monophasic EAE [2]; [7]): 100% | Mean Clinical Score (acute monophasic EAE [2]; [8]): 1.63 ± 0.59 | Max. Clinical Score (acute monophasic EAE [2]; [7]): 3.1 ± 0.33 | Incidence (acute monophasic EAE [2]; [9]): 40% | Mean Clinical Score (acute monophasic EAE [2]; [10]): 0.21 ± 0.07 | Incidence (acute monophasic EAE [2]; [11]): 0% | Mean Clinical Score (acute monophasic EAE [2]; [11]): 0 | Max. Clinical Score (acute monophasic EAE [2]; [11]): 0

CN(C)CCN1C(=O)c2cccc3cc4ccc(I)cc4c(c23)C1=O [*10-I]
pIC50 (L1210 resistant): 7.28 | pIC50 (neonatal rat myocytes): 5.32 | pIC50 (L1210 sensitive): 6.51

CN(C)CCCN1C(=O)c2cccc3cc4ccccc4c(c23)C1=O [2-(CH2)3N(CH3)2]
pIC50 (L1210 resistant): 7.09 | pIC50 (neonatal rat myocytes): 4.94 | pIC50 (L1210 sensitive): 7.27

CCOc1ccc2cc3cccc4c3c(c2c1)C(=O)N(CCN(C)C)C4=O [*10-OC2H5]
pIC50 (L1210 resistant): 7.30 | pIC50 (neonatal rat myocytes): 4.95 | pIC50 (L1210 sensitive): 7.60

O=C1c2cccc3cc4ccccc4c(c23)C(=O)N1Cc1cccnc1 [2-CH2-3-pyridyl]
pIC50 (L1210 resistant): 5.57 | pIC50 (neonatal rat myocytes): < 4.60 | pIC50 (L1210 sensitive): 5.73

CN(C)CCN1C(=O)c2cc(N)cc3cc4ccccc4c(c23)C1=O [*5-NH2]
pIC50 (L1210 resistant): 7.82 | pIC50 (neonatal rat myocytes): 5.76 | pIC50 (L1210 sensitive): 8.22

CN(C)CCN1C(=O)c2cccc3cc4cc(O)ccc4c(c23)C1=O [*9-OH]
pIC50 (L1210 resistant): 8.15 | pIC50 (neonatal rat myocytes): 6.39 | pIC50 (L1210 sensitive): 8.30

CN(C)CCN1C(=O)c2cccc3cc4c(O)cccc4c(c23)C1=O [*8-OH]
pIC50 (L1210 resistant): 7.17 | pIC50 (neonatal rat myocytes): 5.53 | pIC50 (L1210 sensitive): 6.97

CN(C)CCN1C(=O)c2cccc3c(N)c4ccccc4c(c23)C1=O [*7-NH2]
pIC50 (L1210 resistant): 8.15 | pIC50 (neonatal rat myocytes): 5.71 | pIC50 (L1210 sensitive): 8.30

O=C1c2cccc3cc4ccccc4c(c23)C(=O)N1CCN1CCOCC1 [2-(CH2)2—N-morpholinyl]
pIC50 (L1210 resistant): 6.29 | pIC50 (neonatal rat myocytes): < 4.60 | pIC50 (L1210 sensitive): 6.29
